From patent publication EP0183439B1, “Polycyclic compounds, their preparation and use and formulations containing them” (THE WELLCOME FOUNDATION LIMITED, priority 1984, dated 1986)
Where a name gives a salt, the structure may show the parent alone.

How the values were obtained:
P388/0 tumor cells = experiment: Lymphocytic Leukemia P388/0 Test; assay type: in vivo, CD2-F₁ mice; settings: ratio of median survival time treated/control at optimal dose; i.p. days 1, 5, 9; 10⁶ P388/0 cells i.p. on day 0
Excerpt: Methods for evaluating the antitumor activity of these compounds are essentially those used in the Tumor Panel by the Development Therapeutics Program, Division of Cancer Treatment, National Cancer Institute, A. Goldin, et al., Methods in Cancer Research, Vol. XVI, p. 165, Academic Press (1979). Some modifications, in dose level and schedule have been made to increase the testing efficiency.
(§1) CD2-F₁ mice, of the same sex, weighing within a 3 g range surrounding 20 g, are used for this test. Control and test animals are injected intraperitoneally with a suspension of 10⁶ viable P388/0 tumor cells on day 0. In each test several dose levels which bracket the LD₂₀ for the compound are evaluated; each dose level group contains 6 animals. The test compounds are prepared either in physiologic saline containing 0.05% Tween 80 or distilled water containing 5% dextrose and are administered intraperitoneally on days, 1, 5, and 9 relative to tumor implant.
Doses are on a mg/kg basis according to individual animals' body weights. The day of death for each animal is recorded, the median identified for each group and the ratios of median survival time for treated (T)/control (C) groups are calculated. The criterion for activity is T/C x 100 120%.

[1] = LD20 in the P388/0 test (toxicity in mice); assay type: in vivo
Experimental: as §1

[2] = intraperitoneally on days 1, 5 and 9

Structure (SMILES)	T/C x 100% (Exluding 30 Day Survivors) (P388/0 tumor cells)	LD₂₀ [1, 2] [mg/kg]	LD₂₀ ([1]; mouse, in vivo, ip) [mg/kg]
CC(CO)(CO)NCc1cccc2oc3ccccc3c12 [Example 4B, 2-[(1-Dibenzofuranylmethyl)amino]-2-methyl-1,3-propanediol hydrochloride]	+140%	200	
CC(CO)(CO)NCc1c2ccccc2nc2ccccc12 [Example 13, 2-[(9-Acridinylmethyl)amino]-2-methyl-1,3-propanediol dihydochoride]	+130%		540
CC(CO)(CO)NCc1cccc2c1sc1ccccc12.Cl [Example 3, 2-[(4-Dibenzothiophenylmethyl)amino]-2-methyl-1,3-propanediol hydrochloride]	+155%	200	
CC(CO)(CO)NCc1ccc2sc3ccccc3c2c1.Cl [Example 2, 2-[(2-Dibenzothiophenylmethyl)amino]-2-methyl-1,3-propanediol hydrochloride]	+130%	200	
CC(CO)(CO)NCc1cc2ccsc2c2ccccc12 [Example 10C, 2-Methyl-2-[(naphtho[1,2-b]thiophene-5-ylmethyl)amino]-1,3-propanediol]	+125%	115	
CC(CO)(CO)NCc1cccc2sc3ccccc3c12 [Example 1, 2-[(1-Dibenzothiophenylmethyl)amino]-2-methyl-1,3-propanediol hydrochloride]	+140%		240
CC(CO)(CO)NCc1c2ccccc2cc2sccc12 [Example 6B, 2-[(Naphtho[2,3-b]thiophen-4-ylmethyl)amino]-2-methyl-1,3-propanediol hydrochloride 1/20 hydrate]	+125%		150
CC(CO)(CO)NCc1ccc2oc3ccccc3c2c1.Cl [Example 5, 2-[(2-Dibenzofuranylmethyl)amino]-2-methyl-1,3-propanediol hydrochloride]	+120%	225	
